Data published in ChEMBL document CHEMBL3885881, “DrugMatrix”.

Organism: Rattus norvegicus
Assay: DrugMatrix - Regimen: Daily Repeat
Assay type: toxicity, organism-based, Sprague-Dawley
Set-up: regimen Daily Repeat, gender Male, age 6-8 weeks
Details: in vivo, po, route oral GAVAGE; for ABSOLUTE BASOPHIL / ABSOLUTE EOSINOPHIL / ABSOLUTE LYMPHOCYTE / ABSOLUTE MONOCYTE / ABSOLUTE SEGMENTED NEUTROPHIL / BASOPHIL / EOSINOPHIL / ERYTHROCYTE COUNT / HEMATOCRIT / HEMOGLOBIN / LEUKOCYTE COUNT / LYMPHOCYTE / MEAN CORPUSCULAR HEMOGLOBIN / MEAN CORPUSCULAR HEMOGLOBIN CONCENTRATION / MEAN CORPUSCULAR VOLUME / MONOCYTE / NEUTROPHIL / NUCLEATED RED BLOOD CELLS / PLATELET COUNT: tissue Blood; for ALANINE AMINOTRANSFERASE / ALBUMIN / ALKALINE PHOSPHATASE / ASPARTATE AMINOTRANSFERASE / BLOOD UREA NITROGEN / CARBON DIOXIDE / CHLORIDE / CHOLESTEROL / CREATINE PHOSPHOKINASE / CREATININE / GLUCOSE / LACTATE DEHYDROGENASE / LIPASE / PHOSPHORUS / POTASSIUM / SODIUM / TOTAL BILIRUBIN / TOTAL PROTEIN / URIC ACID: tissue Plasma
[1] = 2 mg/kg, 72 h, dose level Low, time 3 day, […]
[2] = 2 mg/kg, 120 h, dose level Low, time 5 day, […]
[3] = 1500 mg/kg, 72 h, dose level High, time 3 day, vehicle .5 % CMC
[4] = 1500 mg/kg, 120 h, dose level High, time 5 day, vehicle .5 % CMC

## Cc1nnc2n1-c1ccc(Cl)cc1C(c1ccccc1)=NC2 [ALPRAZOLAM]
[1]
  ABSOLUTE BASOPHIL: 0 CELLS/uL
  ABSOLUTE EOSINOPHIL: 40.33 CELLS/uL
  ABSOLUTE LYMPHOCYTE: 13483.67 CELLS/uL
  ABSOLUTE MONOCYTE: 168.67 CELLS/uL
  ABSOLUTE SEGMENTED NEUTROPHIL: 1074 CELLS/uL
  BASOPHIL: 0%
  EOSINOPHIL: 0.33%
  ERYTHROCYTE COUNT: 5.44 x10E6/uL
  HEMATOCRIT: 34.8%
  HEMOGLOBIN: 13.4 G/DL
  LEUKOCYTE COUNT: 14.77 x10E3/uL
  LYMPHOCYTE: 91%
  MEAN CORPUSCULAR HEMOGLOBIN: 24.7 pg
  MEAN CORPUSCULAR HEMOGLOBIN CONCENTRATION: 38.5 G/DL
  MEAN CORPUSCULAR VOLUME: 64.17 fL
  MONOCYTE: 1.33%
  NEUTROPHIL: 7.33%
  NUCLEATED RED BLOOD CELLS: 0 /100WBC
  PLATELET COUNT: 1211 x10E3/uL
  ALANINE AMINOTRANSFERASE: 78.67 u/L
  ALBUMIN: 4.13 G/DL
  ALKALINE PHOSPHATASE: 386.33 u/L
  ASPARTATE AMINOTRANSFERASE: 99 u/L
  BLOOD UREA NITROGEN: 15 mg/dL
  CARBON DIOXIDE: 27 mmol/L
  CHLORIDE: 99 MEQ/L
  CHOLESTEROL: 68.67 mg/dL
  CREATINE PHOSPHOKINASE: 276 u/L
  CREATININE: 0.2 mg/dL
  GLUCOSE: 160.33 mg/dL
  LACTATE DEHYDROGENASE: 401.67 u/L
  LIPASE: 10.33 u/L
  PHOSPHORUS: 13.67 mg/dL
  POTASSIUM: 7.37 MEQ/L
  SODIUM: 142.63 MEQ/L
  TOTAL BILIRUBIN: 0.23 mg/dL
  TOTAL PROTEIN: 5.63 G/DL
  URIC ACID: 1.7 mg/dL
[2]
  ABSOLUTE BASOPHIL: 0 CELLS/uL
  ABSOLUTE EOSINOPHIL: 0 CELLS/uL
  ABSOLUTE LYMPHOCYTE: 13775.33 CELLS/uL
  ABSOLUTE MONOCYTE: 53.67 CELLS/uL
  ABSOLUTE SEGMENTED NEUTROPHIL: 1637.67 CELLS/uL
  BASOPHIL: 0%
  EOSINOPHIL: 0%
  ERYTHROCYTE COUNT: 5.79 x10E6/uL
  HEMATOCRIT: 35.1%
  HEMOGLOBIN: 13.93 G/DL
  LEUKOCYTE COUNT: 15.47 x10E3/uL
  LYMPHOCYTE: 89%
  MEAN CORPUSCULAR HEMOGLOBIN: 24.07 pg
  MEAN CORPUSCULAR HEMOGLOBIN CONCENTRATION: 39.7 G/DL
  MEAN CORPUSCULAR VOLUME: 60.57 fL
  MONOCYTE: 0.33%
  NEUTROPHIL: 10.67%
  NUCLEATED RED BLOOD CELLS: 0 /100WBC
  PLATELET COUNT: 1214.33 x10E3/uL
  ALANINE AMINOTRANSFERASE: 67 u/L
  ALBUMIN: 4 G/DL
  ALKALINE PHOSPHATASE: 343.67 u/L
  ASPARTATE AMINOTRANSFERASE: 109.67 u/L
  BLOOD UREA NITROGEN: 15 mg/dL
  CARBON DIOXIDE: 27 mmol/L
  CHLORIDE: 101 MEQ/L
  CHOLESTEROL: 81.67 mg/dL
  CREATINE PHOSPHOKINASE: 429 u/L
  CREATININE: 0.19 mg/dL
  GLUCOSE: 142.33 mg/dL
  LACTATE DEHYDROGENASE: 632 u/L
  LIPASE: 10.67 u/L
  PHOSPHORUS: 11.1 mg/dL
  POTASSIUM: 5.98 MEQ/L
  SODIUM: 144.97 MEQ/L
  TOTAL BILIRUBIN: 0.13 mg/dL
  TOTAL PROTEIN: 5.63 G/DL
  URIC ACID: 1.63 mg/dL

## CC(C)=CCC/C(C)=C/CO [GERANIOL]
[3]
  ABSOLUTE BASOPHIL: 0 CELLS/uL
  ABSOLUTE EOSINOPHIL: 0 CELLS/uL
  ABSOLUTE LYMPHOCYTE: 15609.33 CELLS/uL
  ABSOLUTE MONOCYTE: 78.67 CELLS/uL
  ABSOLUTE SEGMENTED NEUTROPHIL: 1378.67 CELLS/uL
  BASOPHIL: 0%
  EOSINOPHIL: 0%
  ERYTHROCYTE COUNT: 5.7 x10E6/uL
  HEMATOCRIT: 37.23%
  HEMOGLOBIN: 14.37 G/DL
  LEUKOCYTE COUNT: 17.07 x10E3/uL
  LYMPHOCYTE: 92%
  MEAN CORPUSCULAR HEMOGLOBIN: 25.2 pg
  MEAN CORPUSCULAR HEMOGLOBIN CONCENTRATION: 38.57 G/DL
  MEAN CORPUSCULAR VOLUME: 65.37 fL
  MONOCYTE: 0.33%
  NEUTROPHIL: 7.67%
  NUCLEATED RED BLOOD CELLS: 0.33 /100WBC
  PLATELET COUNT: 1276 x10E3/uL
  ALANINE AMINOTRANSFERASE: 47.33 u/L
  ALBUMIN: 4.4 G/DL
  ALKALINE PHOSPHATASE: 442 u/L
  ASPARTATE AMINOTRANSFERASE: 82 u/L
  BLOOD UREA NITROGEN: 13 mg/dL
  CARBON DIOXIDE: 29 mmol/L
  CHLORIDE: 100.67 MEQ/L
  CHOLESTEROL: 46.33 mg/dL
  CREATINE PHOSPHOKINASE: 471.33 u/L
  CREATININE: 0.25 mg/dL
  GLUCOSE: 162 mg/dL
  LACTATE DEHYDROGENASE: 193.67 u/L
  LIPASE: 9 u/L
  PHOSPHORUS: 14.7 mg/dL
  POTASSIUM: 7.11 MEQ/L
  SODIUM: 143.87 MEQ/L
  TOTAL BILIRUBIN: 0.13 mg/dL
  TOTAL PROTEIN: 5.93 G/DL
  URIC ACID: 2.07 mg/dL
[4]
  ABSOLUTE BASOPHIL: 0 CELLS/uL
  ABSOLUTE EOSINOPHIL: 0 CELLS/uL
  ABSOLUTE LYMPHOCYTE: 19247.33 CELLS/uL
  ABSOLUTE MONOCYTE: 1179 CELLS/uL
  ABSOLUTE SEGMENTED NEUTROPHIL: 2373.67 CELLS/uL
  BASOPHIL: 0%
  EOSINOPHIL: 0%
  ERYTHROCYTE COUNT: 6.01 x10E6/uL
  HEMATOCRIT: 36.67%
  HEMOGLOBIN: 14.67 G/DL
  LEUKOCYTE COUNT: 22.8 x10E3/uL
  LYMPHOCYTE: 84.67%
  MEAN CORPUSCULAR HEMOGLOBIN: 24.53 pg
  MEAN CORPUSCULAR HEMOGLOBIN CONCENTRATION: 40.03 G/DL
  MEAN CORPUSCULAR VOLUME: 61.2 fL
  MONOCYTE: 5%
  NEUTROPHIL: 10.33%
  NUCLEATED RED BLOOD CELLS: 0 /100WBC
  PLATELET COUNT: 1333 x10E3/uL
  ALANINE AMINOTRANSFERASE: 63 u/L
  ALBUMIN: 4.63 G/DL
  ALKALINE PHOSPHATASE: 302.67 u/L
  ASPARTATE AMINOTRANSFERASE: 95.67 u/L
  BLOOD UREA NITROGEN: 18 mg/dL
  CARBON DIOXIDE: 32 mmol/L
  CHLORIDE: 102.33 MEQ/L
  CHOLESTEROL: 85.67 mg/dL
  CREATINE PHOSPHOKINASE: 441 u/L
  CREATININE: 0.16 mg/dL
  GLUCOSE: 143 mg/dL
  LACTATE DEHYDROGENASE: 772 u/L
  LIPASE: 10 u/L
  PHOSPHORUS: 12.2 mg/dL
  POTASSIUM: 6.32 MEQ/L
  SODIUM: 142.2 MEQ/L
  TOTAL BILIRUBIN: 0.1 mg/dL
  URIC ACID: 2 mg/dL
